Laboratory results from patent US20120165319A1, “INHIBITORS OF INTERLEUKIN-1 BETA CONVERTING ENZYME” (VERTEX PHARMACEUTICALS INCORPORATED, priority 1995, published 2012).
Where two headings read alike, the source gives them in different places.

Tests used:
[1] = system: IL-1β, human whole blood; assay: Whole blood assay for IL-1β production; type: cell-based
In short: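 Human whole blood collected on Na2EDTA was treated with serially diluted compound in saline and then stimulated with LPS at 5.0 ng/ml final, for 16-18 h at 30 °C, in duplicate or triplicate. Plasma IL-1β was measured by ELISA at 1:200 dilution.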

[2] = In vivo rat clearance assay; conditions: for clearance: plasma, iv; for Clearance Rat, i.v.: Table 18
In short: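 Rats cannulated a day beforehand received 10–20 mg/kg by intravenous jugular dosing in propylene glycol/saline with 100 mM sodium bicarbonate. Carotid blood was sampled from 0 to 90 min, and plasma was extracted with acetonitrile/0.1% TFA for HPLC quantification. Clearance from non-linear regression pharmacokinetic analysis.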

[3] = target: T1, ICE (Homo sapiens, UniProt P29466); assay: Enzyme assay with UV-visible substrate (visible ICE assay, Succinyl-Tyr-Val-Ala-Asp-pNitroanilide); type: biochemical
T1 sequence (P29466 120-297 limits assumed): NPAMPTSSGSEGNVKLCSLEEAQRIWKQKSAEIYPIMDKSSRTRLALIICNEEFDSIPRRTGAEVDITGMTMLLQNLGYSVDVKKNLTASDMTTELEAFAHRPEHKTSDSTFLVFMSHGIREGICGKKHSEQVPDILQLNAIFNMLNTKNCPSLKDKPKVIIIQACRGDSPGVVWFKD
T1 sequence (P29466 317-404 limits assumed): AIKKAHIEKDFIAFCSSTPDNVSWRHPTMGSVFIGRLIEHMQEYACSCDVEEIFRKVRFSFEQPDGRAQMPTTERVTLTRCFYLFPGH
In short: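 Read-out is the rate of pNA chromophore release (mOD/min, linear fit) monitored at 405-603 nm over 20 min at 37° C. Substrate was succinyl-Tyr-Val-Ala-Asp-pNitroanilide, added after a 15 min room-temperature preincubation of ICE with inhibitor.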

[4] = Homo sapiens, * = values obtained upon reassay, read-out: Whole human blood IC50
[5] = Table 18, read-out: Whole human blood IC5O

Molecule	IC50 [1, 4] [nM]	clearance ([2]; 10-20 mg/kg) [mL/min/kg]	other results
O=C[C@H](CC(=O)O)NC(=O)[C@@H]1CCCN2C(=O)CC[C@H](NC(=O)CCc3ccccc3)C(=O)N12 [Compound 47a, [3S(1S,9S)]3-(6,10-Dioxo-octahydro-9-(3-phenylpropionylamino)-6H-pyridazino[1,2-a][1,2]diazepine-1-carboxamido)-4-oxobutanoic acid]	5100	32	
O=C(O)C[C@H](NC(=O)[C@@H]1CCCN2C(=O)CC[C@H](NC(=O)c3ccccc3)C(=O)N12)C(=O)COc1cccnc1 [Compound 283, [3S(1S,9S)]3-[9-Benzoylamino-6,10-dioxo-1,2,3,4,7,8,9,10-octahydro-6H-pyridazino[1,2-a][1,2]diazepine-1-carboxamido]-4-oxo-5-(3-pyridyloxy)pentanoic acid]	450	104	
COC(=O)N[C@H]1CCC(=O)N2CCC[C@@H](C(=O)N[C@@H](CC(=O)O)C(=O)COC(=O)c3c(Cl)cccc3Cl)N2C1=O [Compound 284, [3S(1S,9S)]5-(2,6-Dichlorobenzoyloxy)-3-[6,10-dioxo-9-(methoxycarbonyl)amino-1,2,3,4,7,8,9,10-octahydro-6H-pyridazino[1,2-a][1,2]diazepine-1-carboxamido]-4-oxopentanoic acid]	550	100	
COC(=O)N[C@H]1CCC(=O)N2CCC[C@@H](C(=O)N[C@@H](CC(=O)O)C(=O)COC(=O)c3c(C)cccc3C)N2C1=O [Compound 285, [3S(1S,9S)]5-(2,6-Dimethylbenzoyloxy)-3-[6,10-dioxo-9-(methoxycarbonyl)amino-1,2,3,4,7,8,9,10-octahydro-6H-pyridazino[1,2-a][1,2]diazepine-1-carboxamido]-4-oxopentanoic acid]	1000	50	
CS(=O)(=O)N[C@H]1CCC(=O)N2CCC[C@@H](C(=O)N[C@@H](CC(=O)O)C(=O)COC(=O)c3cccc4ccccc34)N2C1=O [Compound 286, [3S(1S,9S)]3-(6,10-Dioxo-9-methanesulphonylamino-1,2,3,4,7,8,9,10-octahydro-6H-pyridazino[1,2-a][1,2]diazepine-1-carboxamido)-5-(1-naphthoyloxy)-4-oxopentanoic acid]			IC50 [1, 5]: 1600 nM; Clearance Rat, i.v. [2]: 119 mL/min/kg
COC(=O)N[C@H]1CCC(=O)N2CCC[C@@H](C(=O)N[C@@H](CC(=O)O)C(=O)CSc3ncccn3)N2C1=O [Compound 511c, [3S(1S,9S)]3-[6,10-Dioxo-9-(methoxycarbonyl)-amino-1,2,3,4,7,8,9,10-octahydro-6H-pyridazino[1,2-a][1,2]diazepine-1-carboxamido]-5-(2-mercaptopyrimidine)-4-oxopentanoic acid]			Ki ([3]; Table 17): 730 nM; clearance ([2]; Table 17): 40 mL/min/kg
[3S(1S,9S)]3-[(6,10-Dioxo-9-(methanesulphonylamino)-1,2,3,4,7,8,9,10-octahydro-6H-pyridazino[1,2-a][1,2]diazepine-1-carboxamido]-5-(5-methyl-3-phenylisoxazoyloxy)-4-oxopentanoic acid [505 b]			IC50 [1, 5]: 2100 nM; Clearance Rat, i.v. [2]: 196 mL/min/kg

More lines, main results first:

IC50 [1, 4] [nM]	clearance ([2]; 10-20 mg/kg) [mL/min/kg]	Molecule	other results
> 1000	187	O=C(O)C[C@H](NC(=O)[C@@H]1CCCN2C(=O)CC[C@H](NC(=O)c3ccccc3)C(=O)N12)C(=O)CSc1nnnn1-c1ccccc1 [Compound 280, [3S(1S,9S)]3-(9-Benzoylamino-6,10-dioxo-1,2,3,4,7,8,9,10-octahydro-6H-pyridazino[1,2-a][1,2]diazepine-1-carboxamido)-4-oxo-5(1-phenyl-1H-tetrazole-5-thio)pentanoic acid]	
	18	O=C[C@H](CC(=O)O)NC(=O)[C@@H]1CCCN2C(=O)CC[C@H](NC(=O)c3ccc4c(c3)OCO4)C(=O)N12 [Compound 415, [3S(1S,9S)]3-[6,10-Dioxo-9-(3,4-methylenedioxybenzoylamino)-1,2,3,4,7,8,9,10-octahydro-6H-pyridazino[1,2-a][1,2]diazepine-1-carboxamido]-4-oxobutanoic acid]	Ki ([3]; Table 5): 2.5 nM
